Here are results for 17 compounds from PubChem BioAssay AID280 (DTP/NCI, 2004).

The subject of this experiment is nude mice, LOX melanoma ip, survival T/C. The experiment is described as follows: NCI In Vivo Anticancer Drug Screen. Data for tumor model Human Amelanotic Melanoma (LOX) (intraperitoneal) in NU/NU BALB/C (nude) mice. The settings on record: endpoint: median survival time, schedule: Q04DX003 (ip), higher = longer survival. As for the experimental part:
The antitumor activity of compounds was measured in mice bearing transplantable tumors. Survival or tumor size were measured and the results are expressed as the measurement made in the treated group (T) divided by the measurement made in the vehicle treated control group (C). The tumor model used in this assay is Human Amelanotic Melanoma (LOX) (intraperitoneal) in NU/NU BALB/C (nude) mice

The mark [1] stands for this setting: dose: 25.0 mg/kg/injection, vehicle: suspension in saline.
Setting [2] is: dose: 50.0 mg/kg/injection, vehicle: suspension in saline.
[3] abbreviates: dose: 100.0 mg/kg/injection, vehicle: suspension in saline.
Setting [4] is: dose: 25.0 mg/kg/injection, vehicle: Klucel (hydroxypropylcellulose) (HPC).
Setting [5] is: dose: 50.0 mg/kg/injection, vehicle: Klucel (hydroxypropylcellulose) (HPC).
The mark [6] stands for this setting: dose: 50.0 mg/kg/injection, vehicle: saline with Tween-80.
[7] abbreviates: dose: 100.0 mg/kg/injection, vehicle: saline with Tween-80.
[8] abbreviates: dose: 75.0 mg/kg/injection, vehicle: Klucel (hydroxypropylcellulose) (HPC).
The mark [9] stands for this setting: dose: 150.0 mg/kg/injection, vehicle: Klucel (hydroxypropylcellulose) (HPC).

“And” between values parts separate entries of the source, which are not always exact repeats. Identical values can stand only once. Inconclusive results and toxic doses are left out.

Take `S=C1CCCCN1`: the T/C runs as follows: (dose: 37.5 mg/kg/injection, vehicle: distilled water + Tween-80 + alcohol) 98 % of control; (dose: 75.0 mg/kg/injection, vehicle: distilled water + Tween-80 + alcohol) 100 % of control; (dose: 150.0 mg/kg/injection, vehicle: distilled water + Tween-80 + alcohol) 111 % of control.
With `CC(=O)Nc1ccc(Nc2ccc(C(=C3C=CC(=[N+](C)CCC#N)C=C3)c3ccc(N(C)CCC#N)cc3)cc2)cc1`, the T/C by setting is: (dose: 6.25 mg/kg/injection, vehicle: suspension in saline) 101 % of control; (dose: 12.5 mg/kg/injection, vehicle: suspension in saline) 111 % of control; under setting [1], 116 % of control; (dose: 30.0 mg/kg/injection, vehicle: suspension in saline) 120 % of control; under setting [2], 111 % of control and 121 % of control; (dose: 83.0 mg/kg/injection, vehicle: suspension in saline) 110 % of control. Under setting [3], the T/C is 124 % of control.
`Nc1ccc2ccc(NS(=O)(=O)N3CCCCC3)cc2c1`: the T/C (dose: 300.0 mg/kg/injection, vehicle: saline with Tween-80) was 154 % of control and the T/C (dose: 600.0 mg/kg/injection, vehicle: saline with Tween-80) is 96 % of control.
With `O=C1C2=C(Nc3cc([N+](=O)[O-])ccc3N2)OC1c1ccccn1` (stereo not given), the T/C runs as follows: under setting [4], 99 % of control; under setting [5], 99 % of control; (dose: 100.0 mg/kg/injection, vehicle: Klucel (hydroxypropylcellulose) (HPC)) 110 % of control; (dose: 200.0 mg/kg/injection, vehicle: Klucel (hydroxypropylcellulose) (HPC)) 110 % of control.
Take `CC(C)N1C(=O)N(Cl)C2C1N(Cl)C(=O)N2Cl` (stereo not given): the T/C is 103 % of control and 88 % of control (dose: 6.25 mg/kg/injection, vehicle: saline with Tween-80); 102 % of control and 88 % of control (dose: 12.5 mg/kg/injection, vehicle: saline with Tween-80); 109 % of control and 98 % of control (dose: 25.0 mg/kg/injection, vehicle: saline with Tween-80); 107 % of control and 121 % of control under setting [6]; 102 % of control and 120 % of control under setting [7].
On to `COc1cc(C2=NCCc3cc4c(cc32)OCO4)cc(OC)c1OC`, for which the T/C reads like this: (dose: 18.75 mg/kg/injection, vehicle: saline + alcohol) 114 % of control; (dose: 37.5 mg/kg/injection, vehicle: saline + alcohol) 115 % of control; (dose: 75.0 mg/kg/injection, vehicle: saline + alcohol) 110 % of control; (dose: 150.0 mg/kg/injection, vehicle: saline + alcohol) 115 % of control.
Consider `CCC1OC(OC)C=CC1=O` (stereo not given), for which the T/C was 96 % of control under setting [1], 104 % of control under setting [2] and 113 % of control under setting [3].
`CCS/C(SC)=C(/c1ccccc1)[P+](c1ccccc1)(c1ccccc1)c1ccccc1`: the T/C is, setting by setting: (dose: 0.81 mg/kg/injection, vehicle: Klucel (hydroxypropylcellulose) (HPC)) 106 % of control; (dose: 1.35 mg/kg/injection, vehicle: Klucel (hydroxypropylcellulose) (HPC)) 106 % of control; (dose: 2.25 mg/kg/injection, vehicle: Klucel (hydroxypropylcellulose) (HPC)) 118 % of control; (dose: 3.12 mg/kg/injection, vehicle: Klucel (hydroxypropylcellulose) (HPC)) 95 % of control; (dose: 3.76 mg/kg/injection, vehicle: Klucel (hydroxypropylcellulose) (HPC)) 100 % of control; (dose: 6.25 mg/kg/injection, vehicle: Klucel (hydroxypropylcellulose) (HPC)) 94 % of control.
In the case of `NCCCC(N)(C(=O)O)C(F)F` (stereo not given), the T/C was 112 % of control (dose: 75.0 mg/kg/injection, vehicle: distilled water + alcohol); 111 % of control (dose: 150.0 mg/kg/injection, vehicle: distilled water + alcohol); 101 % of control (dose: 300.0 mg/kg/injection, vehicle: distilled water + alcohol); 97 % of control (dose: 600.0 mg/kg/injection, vehicle: distilled water + alcohol); 106 % of control (dose: 1200.0 mg/kg/injection, vehicle: distilled water + alcohol).
Regarding `CCCCOCN(COCCCC)C12CC3CC(CC(C3)C1)C2`, the T/C is 106 % of control under setting [6]; 97 % of control under setting [7]; 114 % of control (dose: 200.0 mg/kg/injection, vehicle: saline with Tween-80); 120 % of control (dose: 400.0 mg/kg/injection, vehicle: saline with Tween-80).
On to `O=CC(O)C(O)C(O)C(O)CO` (stereo not given), for which the T/C reads like this: (dose: 75.0 mg/kg/injection, vehicle: saline) 112 % of control and 99 % of control; (dose: 150.0 mg/kg/injection, vehicle: saline) 107 % of control and 98 % of control; (dose: 300.0 mg/kg/injection, vehicle: saline) 102 % of control and 106 % of control; (dose: 600.0 mg/kg/injection, vehicle: saline) 95 % of control; (dose: 1200.0 mg/kg/injection, vehicle: saline) 98 % of control and 99 % of control.
For the compound `Cc1ccc(C2=CSC3=NCCN23)cc1Cl`, the T/C runs as follows: (dose: 12.5 mg/kg/injection, vehicle: Klucel (hydroxypropylcellulose) (HPC)) 97 % of control; under setting [4], 96 % of control; under setting [5], 101 % of control.
For `CC(C)(C)c1ccc(C(=O)N2CCOC23CCCCC3)cc1`, the T/C by setting is: under setting [8], 98 % of control; under setting [9], 95 % of control; (dose: 300.0 mg/kg/injection, vehicle: Klucel (hydroxypropylcellulose) (HPC)) 92 % of control; (dose: 600.0 mg/kg/injection, vehicle: Klucel (hydroxypropylcellulose) (HPC)) 107 % of control; (dose: 1200.0 mg/kg/injection, vehicle: Klucel (hydroxypropylcellulose) (HPC)) 107 % of control.
As to `COc1cccc2c1[C@H]1CO[C@H]3C4C[C@H](C(=O)O)C([C@@H](C2)N13)N4C` (stereo not given in full), the T/C is, setting by setting: (dose: 0.62 mg/kg/injection, vehicle: water) 121 % of control; (dose: 1.25 mg/kg/injection, vehicle: water) 121 % of control; (dose: 5.0 mg/kg/injection, vehicle: water) 196 % of control; (dose: 10.0 mg/kg/injection, vehicle: water) 152 % of control; (dose: 20.0 mg/kg/injection, vehicle: water) 177 % of control.
Turning to `N/C(=N\OC(=O)Nc1ccc(CSc2ccc(Cl)cc2)o1)c1ccccn1`, the T/C reads like this: (dose: 18.75 mg/kg/injection, vehicle: Klucel (hydroxypropylcellulose) (HPC)) 97 % of control; (dose: 37.5 mg/kg/injection, vehicle: Klucel (hydroxypropylcellulose) (HPC)) 97 % of control; under setting [8], 92 % of control; under setting [9], 102 % of control.
`Nc1ncc(C2OC(CO)C(O)C2O)c(=O)[nH]1` (stereo not given): the T/C runs as follows: (dose: 62.5 mg/kg/injection, vehicle: saline) 112 % of control; (dose: 125.0 mg/kg/injection, vehicle: saline) 109 % of control; (dose: 250.0 mg/kg/injection, vehicle: saline) 100 % of control.
`Cc1ccc2nc(-c3ccc4nc(-c5ccc(N=Nc6ccc(-c7nc8ccc(-c9nc%10ccc(C)c(S(=O)(=O)O)c%10s9)cc8s7)cc6)cc5)sc4c3)sc2c1S(=O)(=O)O`: the T/C reads like this: (dose: 75.0 mg/kg/injection, vehicle: suspension in saline) 92 % of control; (dose: 150.0 mg/kg/injection, vehicle: suspension in saline) 96 % of control.
